Experimental data taken from patent publication US7705029B2 (Synta Pharmaceuticals Corp., priority 2004, dated 2010).
Read-outs that look alike come from different tables or passages of the source.

System: IL-2 production in a Human Jurkat Cell Line
Assay: Inhibition of IL-2 production in PHA-stimulated Jurkat cells (IL-2 ELISA)
Format: cell-based
Conditions: read-out: IC50 (concentration at which IL-2 release is inhibited by 50%)
Experimental: Jurkat cells (ATCC, Cat# TIB-152) were grown in RPMI1640 medium (ATCC, Cat# 30-2001) containing 10% of FBS (ATCC, Cat# 30-2020). For compound screening, Jurkat cells were plated in 96-well plates at a density of 0.5 million cells per well in RPMI1640 medium containing 1% of FBS. Then, various concentrations of each test compound were added to the cell plates followed by addition of PHA (Sigma, Cat# L-9017) at a final concentration of 2.5 μg/ml to stimulate IL-2 production. Cells were then incubated at 37° C. (+5% CO2) for 20 hours before ELISA assay. After 20 hours incubation, cell plates were centrifuged at 500-800 g for 5 minutes and the supernatants was collected for IL-2 detection using the human IL-2 ELISA kit purchased from Cell Sciences (Cat# 851.500.020). The ELISA assay for IL-2 production was done in 96-well plates using a protocol provided by Cell Sciences.
The IC50 (i.e., the concentration at which IL-2 release is inhibited by 50%) was determined and the results are shown in the Table. […] The designation “A” means an IC50 less than 0.010 μM; the designation B means an IC50 between 0.010 and 1.0 μM; and the designation “C” mean an IC50 greater than 1 μM.

For `N#CC(=Cc1ccc(-n2nc(C(F)(F)F)cc2C(F)(F)F)cc1Cl)c1cccc(F)c1F` [Compound 13, 3-[4-(3,5-Bis-trifluoromethyl-pyrazol-1-yl)-2-chloro-phenyl]-2-(2,3-difluoro-phenyl)-acrylonitrile], the IC50 (Jurkat cells, PHA 2.5 μg/ml, 20 hours incubation, human IL-2 ELISA of supernatant) was over 1000 nM.
Molecule `N#CC(=Cc1ccc(-n2c(C(F)(F)F)nc3ccccc32)cc1)c1cccc(F)c1F` [Compound 45, 2-(2,3-Difluoro-phenyl)-3-[4-(2-trifluoromethyl-benzoimidazol-1-yl)-phenyl]-acrylonitrile] has an IC50 (Homo sapiens, Jurkat, 20 h) of 10 to 1000 nM.
`N#CC(=Cc1ccc(-n2ccc(C(F)(F)F)n2)cc1)C(=O)c1cc(F)ccc1F` [Compound 41, 2-(2,5-Difluoro-benzoyl)-3-[4-(3-trifluoromethyl-pyrazol-1-yl)-phenyl]-acrylonitrile] gave an IC50 (Homo sapiens, Jurkat, 20 h) of over 1000 nM.
`Cc1cc(C(F)(F)F)n(-c2ccc(/C=C(\C#N)c3cc(F)ccc3F)cc2)n1` [Compound 15, 2-(2,5-Difluoro-phenyl)-3-[4-(3-methyl-5-trifluoromethyl-pyrazol-1-yl)-phenyl]-acrylonitrile] gave an IC50 (Homo sapiens, Jurkat, 20 h) of 10 to 1000 nM.
